# Test results: patent US20210069295A1, “GALECTINS CONTROL MTOR IN RESPONSE TO ENDOMEMBRANE DAMAGE AND PROVIDE A MECHANISM AND TARGET FOR THE TREATMENT OF AUTOPHAGY-RELATED DISEASES” (STC. UNM, priority 2017, published 2021)
# Legend:
# TFEB = TFEB nuclear translocation by high-content microscopy in HeLa cells; assay type: cell-based; conditions: 1 h full medium
# Method: (A) Dose-response analysis of mTOR activity in HEK293T cells treated with glycyl-L-phenylalanine 2-naphththylamide (GPN) in full medium for 1 h. mTOR activity was monitored by inununoblotting analysis of S6K1 (T389) and ULK1 (S757) phosphorylation (phosphorylated S6K (T389) and ULK1 (S757) relative to total S6K and ULK1, respectively). (B) Analysis of mTOR activity (as in A) after GPN washout. HEK293T cells were treated with 100 μM GPN for 1 h followed by 1 h washout in full medium. Data, means±SEM (n=3), **p<0.01, ANOVA. (C) Analysis of mTOR activity (as in A) in HEK293T cells treated with increasing doses of silica in full medium for 1 h. (D) HEK293T cells were treated with lysosomal damaging agents (LLOMe, Leu-Leu-OMe) for 1 h in full medium and status of acidified organelles assessed by quantifying LysoTracker Red DND-99 puncta using automated high-content imaging and analysis (HC). […] Data, means±SEM, n≥3 independent experiments (500 primary objects counted per well; ≥5 wells/sample per each experiment), **p<0.01, ANOVA. […] Human peripheral blood monocyte derived macrophages were treated with 100 μM GPN in full medium or starved in EBSS for 1 h, and mTOR activity measured as in A. None-treated cells were as control (Ctrl). […] Data, means±SEM, n≥3 independent experiments (500 primary objects counted per well; ≥5 wells/sample per each experiment) **p<0.01, ANOVA. […]
# [1] = system: bone marrow-derived macrophages (BMMs); assay: LysoTracker Red DND-99 staining in bone marrow-derived macrophages (BMMs); assay type: cell-based, murine; conditions: GPN 400 μM or LLOMe, 1 h
# mTOR [2] = assay: mTOR activity by immunoblotting of S6K1 (T389) and ULK1 (S757) phosphorylation in HEK293T cells; assay type: cell-based; conditions: HEK293T cells, full medium, 1 h
# Method: (§1) (A) Dose-response analysis of mTOR activity in HEK293T cells treated with glycyl-L-phenylalanine 2-naphththylamide (GPN) in full medium for 1 h. mTOR activity was monitored by inununoblotting analysis of S6K1 (T389) and ULK1 (S757) phosphorylation (phosphorylated S6K (T389) and ULK1 (S757) relative to total S6K and ULK1, respectively). (B) Analysis of mTOR activity (as in A) after GPN washout. HEK293T cells were treated with 100 μM GPN for 1 h followed by 1 h washout in full medium. Data, means±SEM (n=3), **p<0.01, ANOVA. (C) Analysis of mTOR activity (as in A) in HEK293T cells treated with increasing doses of silica in full medium for 1 h. (D) HEK293T cells were treated with lysosomal damaging agents (LLOMe, Leu-Leu-OMe) for 1 h in full medium and status of acidified organelles assessed by quantifying LysoTracker Red DND-99 puncta using automated high-content imaging and analysis (HC). None-treated cells were as control (Ctrl). White masks, algorithm defined cell boundaries (primary objects); yellow masks, computer-identified LysoTracker Red puncta (target objects). Data, means±SEM, n≥3 independent experiments (500 primary objects counted per well; ≥5 wells/sample per each experiment), **p<0.01, ANOVA. (E) Analysis of mTOR activity in primary human macrophages treated with GPN. Human peripheral blood monocyte derived macrophages were treated with 100 μM GPN in full medium or starved in EBSS for 1 h, and mTOR activity measured as in A. None-treated cells were as control (Ctrl). (F) Quantification by HC of overlaps between mTOR and LAMP2 (representative images shown in FIG. S1D) in HeLa cells treated with lysosomal damaging agents for 1 h in full medium. Data, means±SEM, n≥3 independent experiments (500 primary objects counted per well; ≥5 wells/sample per each experiment) **p<0.01, ANOVA. (G) Immunofluorescence confocal microscopy visualization of mTOR localization relative to LAMP2-positive lysosomes. […] (H) Analysis of TFEB nuclear translocation in HeLa cells treated with 100 μM GPN in full medium for 1 h, and the nuclear translocation of TFEB was measured by HC (Nuclei, Hoechst 33342, blue pseudocolor; TFEB red fluorescence, Alexa-568). […] White masks, computer algorithm-defined cell boundaries (primary objects); pink masks, computer-identified nuclear TFEB based on the average intensity of Alexa-568 fluorescence. Data, means±SEM, n≥3 independent experiments (500 primary objects counted per well; ≥5 wells/sample per each experiment), **p<0.01, ANOVA. (I) HeLa cells were treated as indicated in full medium for 1 h, and LC3 puncta were quantified by HC. […] Data, means±SEM, n≥3 independent experiments (500 primary objects counted per well; ≥5 wells/sample per each experiment), **p<0.01, ANOVA. […]
# mTOR [3] = assay: mTOR localization relative to LAMP2-positive lysosomes (HC and confocal microscopy); assay type: cell-based; conditions: HeLa cells
# Method: as §1
compound,measurement,setting,value
"COC(=O)[C@H](CC(C)C)NC(=O)[C@@H](N)CC(C)C [LLOMe, Leu-Leu-OMe]",TFEB nuclear translocation,TFEB,translocated to the nucleus from the cytoplasm
same,LysoTracker Red DND-99 staining in BMMs (lysosomal damage),[1],reduced LysoTracker Red DND-99 staining
same,mTOR activity (phosphorylation of its substrates S6K1 and ULK1),mTOR [2],caused inhibition of mTOR activity
same,mTOR localization after washout,mTOR [3]; 2 mM LLOMe 1 h followed by 1 h washout,relocalization of mTOR to lysosomes
same,"mTOR localization (lysosomes vs cytosol, overlap with LAMP2)",mTOR [3]; 1 h full medium,translocated from lysosomes to the cytosol
